Assays:
CIA = assay: Collagen-induced arthritis (CIA) model; type: in vivo, C57BL mice; settings: for CIA clinical scores: 0.25 mg i.p. on days 0, 3, 6, 9, 12, 15, 18, vs corn oil, FIG. 7A; for Serum level of IL-6 / Frequency of CD4+IL-17+ cells in the secondary lymphoid organs: 0.25 mg i.p.; for Serum level of IL-6: day 45, FIG. 7B; for Frequency of CD4+IL-17+ cells in the secondary lymphoid organs: day 45, flow cytometry, FIG. 7C
IMQ-induced psoriasis = IMQ-induced psoriasis model; type: in vivo, male BALB/c mice; settings: for Clinical scores (erythema and thickness of the right ear): topical ointment 40 mg/cm^2 day 0 to 8, vs Vaseline, FIG. 8A; for Il6 mRNA expression in whole biopsies of the right ear / Il17a mRNA expression in whole biopsies of the right ear: topical ointment, day 8, FIG. 8B
Experimental: Experimental psoriasis was induced following a modified method described previously (Sun et al. 2013). To induce disease in male BALB/c mice (6-8 weeks; n=6), imiquimod (IMG; Sichuan Med-Shine Pharmaceutical) at 5% was applied topically at 20 mg/cm^2 on the inside of the right ear for 8 consecutive days. An evaluation system for assessment of erythema and thickness of the ear was developed. Erythema was assessed using a table with red […] (0-4) and ear thickness (0-4) measured using a digital caliber on days 2, 4, 6, and 8 after first IMQ application. The sum of the two parameters scores (ranging from 0-8) was used to indicate the overall clinical score. Treatment ointment was prepared by mixing 1 mg of DMSO-dissolved POE or its representative analogs including POE A2 or POE A3 with 20 gm of Vaseline Petroleum Jelly Original (vehicle, Unilever Inc.); the mixture was then incubated at room temperature overnight. From day 0 to day 8 the mice were treated topically with the treatment ointment (40 mg/cm^2) or Vaseline (IMQ/control). The mRNAs encoding Il6 and Il17a were isolated from whole biopsies of the ear (day 8) and reverse transcribed to make cDNA. The cDNA was then amplified by real-time PCR using TaqMan Gene Expression Assays (Mm00446190_ml, Mm00439618_ml, respectively; Applied Biosystems). The relative expression of mRNAs was calculated by the ΔΔCt method and presented relative to that of IMQ control mice.

SMILES	CIA clinical scores (CIA)	Serum level of IL-6 (CIA)	Frequency of CD4+IL-17+ cells in the secondary lymphoid organs (CIA)	Clinical scores (erythema and thickness of the right ear) (IMQ-induced psoriasis)	Il6 mRNA expression in whole biopsies of the right ear (IMQ-induced psoriasis)	Il17a mRNA expression in whole biopsies of the right ear (IMQ-induced psoriasis)
Cc1nnc(SCC(=O)c2ccccc2)o1 [POE A1]	comparably reduced CIA clinical scores	reduced serum levels of IL-6	reduced the frequency of CD4^+IL-17^+ cells			
CC(=O)CSc1nnc(-c2cccnc2)o1 [POE A3, 2-Propanone, 1-[[5-(3-pyridinyl)-1,3,4-oxadiazol-2-yl]thio]-]				comparably reduced clinical scores	suppressed mRNA expression	suppressed mRNA expression
Cc1nnc(NCC(=O)c2ccccc2)s1 [POE A2, 2-[(5-methyl-1,3,4-thiadiazol-2-yl)amino]-1-phenylethan-1-one]	comparably reduced CIA clinical scores	reduced serum levels of IL-6	reduced the frequency of CD4^+IL-17^+ cells	comparably reduced clinical scores	suppressed mRNA expression	suppressed mRNA expression

Source: patent publication US11654138B2, “Therapeutic agents for treating and preventing autoimmune diseases and cancer and a screening method” (KING FAISAL UNIVERSITY, priority 2019, dated 2023)
